≈ marks a conversion by molar mass, not a printed value. Like-named read-outs stand apart in the source and are kept apart here. Non-standard residues stand in square brackets, D forms with d. Residues, ends and D or L forms follow the SMILES beside them.
Columns and labels:
[1] = 3H tissue distribution of kappa peptide conjugates, conscious rat model; assay type: in vivo, Wistar rats; conditions: ID, 100 μCi, potency corrected
Method: The tissue was weighed and a representative sample, (ca 0.1 g), was removed to a scintillation vial. The tissue was solubilzed with 1 ml of BTS-450 (an organic tissue solubliser). Ten ml of scintillation fluid was added and the radioactivity was measured. The radioactivity was expressed as dpm/initial weight of tissue.

Caco-2 cell monolayers = assay: Permeability of tritiated kappa peptide conjugates through differentiated Caco-2 cell monolayers; assay type: in vitro ADME, human; conditions: n=5
Method: Highest transport values were obtained in the first 30 min followed by a 2-4 fold decrease at 60 min. The significance of these findings is unclear. The data may be indicative of dual binding/uptake events occurring through i) a kappa receptor specific mechanism and ii) direct membrane interaction through lipid interaction of the membrane permeable peptide.

[2] = Systemic 3H bioavailability of kappa peptide conjugates, conscious rat model (plasma); assay type: in vivo, Wistar rats; conditions: intraduodenal (ID), 100 μCi; for bioavailability: rat, plasma, potency corrected, read-out: Absolute 3H bioavailability
Method: The possible enhancing effects of ELAN094 and ELAN207 MTLPs (SEQ ID NOs 2 and 60) on intestinal absorption of the kappa peptide were examined in a conscious rat model.
The study was non-randomised, parallel group design. Wistar rats within the 250-350 g weight range were used. All animals were fasted for a period of 16 h prior to study initiation. Water was available at all times.
Intravenous injection of 10 μCi of ^3H-kappa peptide-Kaffiralin-1 (plain kappa peptide) (tail vein injection).
Intraduodenal instillation of 100 μCi of ^3H-kappa peptide-Elan094 (Analysed). The Elan094 ligand contains a membrane translocating sequence.
Intraduodenal instillation of 100 μCi of ^3H-kappa peptide-Elan207 (Analysed). The Elan207 ligand contains a membrane translocating sequence.
Intraduodenal instillation of 100 μCi of ^3H-kappa peptide-Kaffiralin-1.
The plasma (100-250 μl) was made up to 1 ml with BTS-450 (an organic tissue solubiliser) and incubated for 1 hour. Ten ml of Scintillation fluid was added and the radioactivity was measured.
The study was a non-randomised, parallel group biostudy designed to evaluate the systemic bioavailability of tritium labelled kappa peptide conjugates after intra-duodenal instillation in the conscious rat model. Each rat only received one treatment and the plasma samples were analysed for tritium content. The calculation of AUClast, Amax, tmax, Volume of Distribution (V d) and Clearance was based on base line corrected data. The absolute bioavailability was calculated using potency corrected data.

Caco-2 monolayers [3] = assay: Transport of dipeptide 14C-gly-sar across Caco-2 monolayers; assay type: cell-based, human; set-up: key to % inhibition 14C-gly-sar transport: NS: no significant difference between experimental (+MTLP) and control cells (−MTLP) in the transport of radiolabeled drug; conditions: flux measured over 2 h
Method: (§1) The effect of the MTLPs ZElan094, ZElan178 and ZElan187 (SEQ ID NOS: 2, 7 and 16) and of the targeting peptide ZElan022 (U.S. patent application Ser. Nos. 09/079,819, 09/079,723 AND 09/079,678, AND PCT APPLICATION PCT/US98/10088, PUBLISHED AS WO 98/51325) on the transport of the dipeptide ^14C-gly-sar and of the reporter molecule ^3H-fMLP across Caco-2 monolayers was determined. The Caco-2 monolayers were grown on Transwell-Snapwells. Cell viability was determined by measuring TEER of the Caco-2 monolayers during each experiment. No significant drop in TEER was measured. Cell permeability was determined by measuring mannitol flux across the Caco-2 monolayers during each experiment. No increase in mannitol flux was measured in the presence of the MTLP ZElan094.
The flux of the dipeptide ^14C-gly-sar and of the reporter molecule ^3H-fMLP across the Caco-2 monolayers in the absence and in the presence of the MTLPs ZElan094, ZElan178 and ZElan187 (SEQ ID NOS: 2, 7 and 16) and of the targeting peptide ZElan022 (U.S. patent application Ser. Nos. 09/079,819, 09/079,723 AND 09/079,678), AND PCT APPLICATION PCT/US98/10088, PUBLISHED AS WO 98/51325 was measured over 2 h, and reduction in the permeability coefficient was determined in the presence of cold substrates.

[4] = Solubility of ZElan094 (physical characteristics); assay type: physicochemical; conditions: water
Caco-2 monolayers [5] = assay: Transport of reporter molecule 3H-fMLP across Caco-2 monolayers; assay type: cell-based, human; conditions: for % inhibition 3H-fMLP transport: flux measured over 2 h
Method: as §1, with “A[…]/US98/10088,” for “APPLICATION PCT/US98/10088,”
The flux of the dipeptide ^14C-gly-sar and of the reporter molecule ^3H-fMLP across the Caco-2 monolayers in the absence and in the presence of the MTLPs ZElan094, ZElan178 and ZElan187 (SEQ ID NOS: 2, 7 and 16) and of the targeting peptide ZElan022 (U.S. patent application Ser. Nos. 09/079,819, 09/079,723 AND 09/079,678), AND PCT A[…]/US98/10088, PUBLISHED AS WO 98/51325 was measured over 2 h, and reduction in the permeability coefficient was determined in the presence of cold substrates.
Caco-2 monolayers were grown and tested for viability as in Example 11. Transport of ^3H-fMLP across Caco-2 monolyers was measured in the presence from 0 to 200 μg/ml of the MTLP ZElan094.

Caco-2 cells = assay: Delivery of DNA from MTLP coated liposomes into Caco-2 cells (β-galactosidase expression); assay type: cell-based, human; conditions: versus lipofectamine+DNA and lipofectamine+DNA+protamine control liposomes
Method: DNA delivery into Caco-2 cells from liposomes and from MTLP coated liposomes was calculated as β-galactosidase expression per mg of total protein in the cell supernatant. β-galactosidase expression was determined using the Boehringer Mannheim chemiluminescence kit. Protein was determined using the Pierce Micro bichinconate (BCA) protein assay.
Caco-2 cells were plated at 1×10^5 cells/well in 1 ml of culture media and incubated at 37° C. in 5% CO2 overnight. The cells were washed twice in 0.5 ml of optiMEM. ZElan094, 204N or 204 (SEQ ID NOS: 2, 23, 24) (Solution 4, Example 9) were each added to triplicate wells (250 μl/well) of the washed cells and incubated for 4 h at 37° C. After 4 h, 250 μl of optiMEM containing 2× fetal calf serum was added and the cells were incubated for an additional 20 h at 37° C. At 24 h post-transfection, the cells were lysed with Boehringer Mannheim Lysis Buffer. The lysate was centrifuged for 2 min at 14,000 rpm in an Eppendorf Centrifiguge and the supernatant was collected.

## CC[C@@H](C)[C@@H](NC(=O)[C@@H](Cc1ccccc1)NC(=O)[C@@H](Cc1ccccc1)NC(=O)[C@@H](CCCCN)NC(=O)[C@H]1CCCN1C(=O)[C@@H](C)NC(=O)[C@@H](C)NC(=O)[C@@H](CC(C)C)NC(=O)[C@@H](CC(C)C)NC(=O)[C@H](NC(=O)[C@H]1CCCN1C(=O)[C@@H](CC(C)C)NC(=O)[C@@H](CC(C)C)NC(=O)[C@H](NC(=O)[C@@H](C)NC(=O)[C@@H](C)NC(=O)[C@@H](C)NC(=O)[C@@H](CCCCN)NC(=O)[C@H](N)CCCCN)C(C)C)C(C)C)C(=O)N[C@H](CCCNC(=N)N)C(N)=O [3H-Kappa peptide-Elan 207] (H-[dK][dK][dA][dA][dA][dV][dL][dL][dP][dV][dL][dL][dA][dA][dP][dK][dF][dF][dI][dR]-NH2; N-terminus and C-terminus assumed)
[1]
  Catheter, % of administered dose: 0.14 ± 0.09%
  GI Tissue, % of administered dose: 4.08 ± 2.47%
  GI Washing, % of administered dose: 9.60 ± 16.65%
  GI contents, % of administered dose: 26.34 ± 17.00%
  Liver, % of administered dose: 0.47 ± 0.20%
  Total GI (% recovery from GI tissue, GI contents & GI wash): 40.03 ± 23.23%
[1]; t=6 h
  Kidney, % of administered dose: 0.17 ± 0.07%
  Plasma, % of administered dose: 0.10 ± 0.01%
  Total Recovery, % of administered dose: 40.91 ± 23.32%
[1]; t=6 h, listed as 3H-Kappa peptide Elan207
  Plasma, % of administered dose: 0.10±0.01%
Caco-2 cell monolayers
  permeability compared to the kappa peptide control: No significant increase
[2]; (Repeat) group
  3H AUClast: 249021.32±37503.78 dpm/ml·h
  3H Amax (maximum radioactivity): 201464.40±44854.19 dpm/ml
  fold increase in absolute 3H bioavailability versus kappa peptide without ligand: approx. 2 fold
  bioavailability: 16.6 ± 2.5%
[2]; Elan207 = original group
  3H AUClast: 162743.70±13549.10 dpm/ml·h
  3H Amax (maximum radioactivity): 100041.17±6274.57 dpm/ml
  bioavailability: 11.5 ± 0.96%
[2]; listed as Elan207 MTLP
  fold increase in absolute 3H bioavailability versus kappa peptide without ligand: > 1.5 fold

## CC(C)C[C@H](NC(=O)[C@H](CC(C)C)NC(=O)[C@@H](NC(=O)[C@@H]1CCCN1C(=O)[C@H](CC(C)C)NC(=O)[C@H](CC(C)C)NC(=O)[C@@H](NC(=O)[C@H](C)NC(=O)[C@H](C)NC(=O)[C@H](C)NC(=O)[C@H](CCCCN)NC(=O)[C@H](CCCCN)NC(=O)[C@@H](N)CCCCNS(=O)(=O)c1cccc2c(N(C)C)cccc12)C(C)C)C(C)C)C(=O)N[C@@H](C)C(=O)N[C@@H](C)C(=O)N1CCC[C@H]1C(N)=O [ZElan094]
Caco-2 monolayers [3]
  % inhibition 14C-gly-sar transport: NS
  inhibition of 14C-gly-sar transport: did not inhibit transport
[4]
  solubility: 1000 µg/mL (≈ 545 µM)
Caco-2 monolayers [5]; listed as 094
  % inhibition 3H-fMLP transport: 77.2%
Caco-2 monolayers [5]; listed as ZElan 094
  % inhibition 3H-fMLP transport: inhibited transport
Caco-2 monolayers [5]; range 0 to 200 μg/ml
  inhibition of 3H-fMLP transport: inhibited

## H-K(ε-dansyl)AAVLLPVLLAAKKKRKA-NH2 ({K(dansyl)}-AAVLLPVLLAAKKKRKA-NH2) [ZElan204N]
Caco-2 cells
  DNA delivery into and expression within Caco-2 cells: most effective

— US8017727B2, “Conjugates of membrane translocating agents and pharmaceutically active agents” (Merrion Research III Limited, priority 1999, dated 2011)
